≈ marks a conversion by molar mass, not a printed value. Where two headings read alike, the source gives them in different places.

The text below walks through data of patent US5198445A, “Composition and use of substituted 3-thio-2-propynenitriles as industrial antimicrobials” (The Dow Chemical Company, priority 1992, dated 1993).

For one experiment, the system named is Bacillus subtilis (Bs). The experiment is described as follows: MIC in nutrient agar, Bacillus subtilis. The class given is cell-based, Bacillus subtilis ATCC 8473. The protocol: (§1) The minimum inhibitory concentration (MIC) for the compounds listed in Table I is determined for 9 bacteria, using nutrient agar, and 7 yeast and fungi, using malt yeast agar. A one percent solution of the test compound is prepared in a mixture of acetone and water. Nutrient agar is prepared at pH 6.8, representing a neutral medium, and at pH 8.2, representing an alkaline medium. The nutrient agars are prepared by adding 23 g of nutrient agar to one-liter of deionized water. In addition, the alkaline medium is prepared by adjusting a 0.04M solution of N-[tris-(hydroxymethyl)methyl]-glycine buffered deionized water with concentrated sodium hydroxide to a pH of […]. Malt yeast agar is prepared by adding 3 g yeast extract and 45 g malt agar per liter of deionized water. The specific agar is dispensed in 30 ml aliquots into 25×200 mm test tubes, capped and autoclaved for 15 minutes at 115° C. The test tubes containing the agar are cooled in a water bath until the temperature of the agar is 48° C. Then, an appropriate amount of the one percent solution of the test compound is added (except in the controls where no compound is added) to the respective test tubes so that the final concentrations are 500, 250, 100, 50, 25, 10, 5, 2.5, 1.0 and zero parts per million of the test compound in the agar, thus having a known concentration of test compound dispersed therein. The contents of the test tubes are then transferred to respective petri plates. After drying for 24 hours, the petri plates containing nutrient agar are inoculated with bacteria and those containing malt yeast agar are inoculated with yeast and fungi.
(§2) The inoculation with bacteria is accomplished by using the following procedure. Twenty-four hour-cultures of each of the bacteria are prepared by incubating the respective bacteria in tubes containing nutrient broth for 24 hours at 30° C. in a shaker. Dilutions of each of the 24 hour-cultures are made so that nine separate suspensions (one for each of the nine test bacteria) are made, each containing 10^8 colony forming units (CFU) per ml of suspension of a particular bacteria. Aliquots of 0.3 ml of each of the bacterial suspensions are used to fill the individual wells of Steer's Replicator. For each microbial suspension, 0.3 ml was used to fill three wells (i.e., three wells of 0.3 ml each) so that for the nine different bacteria, 27 wells are filled. The Steer's Replicator is then used to inoculate both the neutral and alkaline pH nutrient agar petri plates.
(§3) The inoculated petri plates are incubated at 30° C. for 48 hours and then read to determine if the test compound which is incorporated into the agar prevented growth of the respective bacteria.
(§4) Table II lists the bacteria, yeast and fungi used in the MIC test described above along with their respective American Type Culture Collection (ATCC) identification numbers.
(§5) The following MIC and MEC antimicrobial tests, whose results are shown in Tables XIII-XVII, are performed using the same methods as described hereinabove.

The next experiment relates to Trichoderma viride (Tv). Briefly: MIC in malt yeast agar, Trichoderma viride. The class given is cell-based, Trichoderma viride ATCC 8678. As to conditions: read-out: Minimum Inhibitory Concentration, Tv. As to the method:
as §1
(§6) The inoculation with the yeast and fungi is accomplished as follows. Cultures of yeast and fungi are incubated for seven days on malt yeast agar at 30° C. These cultures are used to prepare suspensions by the following procedure. A suspension of each organism is prepared by adding 10 ml of sterile saline and 10 microliters of octylphenoxy polyethoxy ethanol (TRITON® X-100, a trademark of Rohm & Haas Company) to the agar slant of yeast or fungi. The sterile saline/octylphenoxy polyethoxy ethanol solution is then agitated with a sterile swab to suspend the microorganism grown on the slant. Each resulting suspension is diluted into sterile saline (1 part suspension: 9 parts sterile saline). Aliquots of these dilutions are placed in individual wells of Steer's Replicator and petri plates inoculated as previously described. The petri plates are incubated at 30° C. and read after 48 hours for yeast and 72 hours for fungi.
as §4, §5

For experiment [1], the system named is Staphylococcus aureus (Sa). Briefly: MIC in nutrient agar, Staphylococcus aureus. The class given is cell-based, Staphylococcus aureus ATCC 6538. As to the method: as §1, §2, §3, §4, §5
In experiment [2] the test system is Pseudomonas aeruginosa (PRD-10). The experiment is described as follows: MIC in nutrient agar, Pseudomonas aeruginosa PRD-10. The class given is cell-based, Pseudomonas aeruginosa ATCC 15442. The protocol: as §1, §2, §3, §4, §5
A further experiment concerns Proteus vulgaris (Pv). Briefly: MIC in nutrient agar, Proteus vulgaris. The class given is cell-based, Proteus vulgaris ATCC 881. The protocol: as §1, §2, §3, §4, §5
The next experiment has as its system Fusarium oxysporum (Fo). The experiment is described as follows: MIC in malt yeast agar, Fusarium oxysporum. The class given is cell-based, Fusarium oxysporum ATCC 48112. As to conditions: read-out: Minimum Inhibitory Concentration, Fo. As to the method:
as §1, §6, §4, §5

Experiment [3] concerns Aureobasidium pullulan (Ap). The experiment is described as follows: MIC in malt yeast agar, Aureobasidium pullulan. The class given is cell-based, Aureobasidium pullulan ATCC 16622. As to conditions: read-out: Minimum Inhibitory Concentration, Ap. As to the method: as §1, §6, §4, §5
Experiment [4] relates to mixture of the bacterial organisms listed in Table II. Briefly: Multiple Challenge Test in hand lotion formulation. The class given is cell-based, bacteria listed in Table II. As to conditions: 10 challenges. The protocol:
(§7) Additionally, the ability of the compounds of Table I to serve as preservatives in a variety of formulated industrial, household, and commercial products is tested using a Multiple Challenge Test Protocol. In this test, the formulations include a styrene-butadiene latex, a tape joint, a hand lotion, and a shampoo. The styrene-butadiene latex test formulation used is Latex DL 238A, available from The Dow Chemical Company. The compositions of the tape joint, hand lotion and shampoo test formulations can be found in Tables V-VII.
(§8) The formulations are separated into 50 g aliquots and placed in sterile bottles. An appropriate amount of a fresh one percent stock solution of the test compound in acetone-water is added to achieve the desired final concentrations. A small portion of each of the test formulations is streaked onto Tryptic Soy Agar (TSA) petri plates using sterile cotton swabs to ensure that the formulations are sterile. If the formulation is sterile, then it is inoculated with 0.1 ml of a mixture of equal aliquots of the 24 hour cultures of each of the bacterial organisms listed in Table II. The test formulations are then incubated at 30° C. After 24 hours, each sample is streaked onto a TSA petri plate using a sterile swab. All plates are then incubated at 30° C. for 48 hours and then rated for microbial growth using the rating system listed in Table VIII. Samples with a rating of 3 or less are reinoculated as described in the procedure for the first inoculation. Samples with a rating of 4 or greater are not reinoculated but after another 24 hours are restreaked on TSA agar.
(§9) The normal interpretation of the results is that a concentration of the antimicrobial being tested is considered to be effective if no ratings greater than a 3 are observed throughout the 10 challenges. The Minimum Effective Concentration (MEC), which is used to compare the activity of the antimicrobial additives in the end-use formulations, is the minimum level that is effective under the conditions of the Multiple Challenge Test.

Experiment [5] shares this test system. The experiment is described as follows: Multiple Challenge Test in styrene-butadiene latex. The class given is cell-based, bacteria listed in Table II. Conditions: Styrene-Butadiene Latex Formulation; 10 challenges. The protocol: as §7, §8, §9
Where [6] appears, read: Bacillus subtilis, pH 6.8, read-out: Minimum Inhibitory Concentration, Bs.
[7] abbreviates: Bacillus subtilis, pH 8.2; read-out: Minimum Inhibitory Concentration, Bs.
[8] abbreviates: Staphylococcus aureus, pH 6.8, read-out: Minimum Inhibitory Concentration, Sa.
Setting [9] is: Staphylococcus aureus, pH 8.2; read-out: Minimum Inhibitory Concentration, Sa.
The mark [10] stands for this setting: Pseudomonas aeruginosa, pH 6.8; read-out: Minimum Inhibitory Concentration, PRD.
Setting [11] is: Pseudomonas aeruginosa, pH 8.2; read-out: Minimum Inhibitory Concentration, PRD.
[12] abbreviates: pH 6.8, read-out: Minimum Inhibitory Concentration, Pv.
The mark [13] stands for this setting: pH 8.2, read-out: Minimum Inhibitory Concentration, Pv.
[14] abbreviates: Bacillus subtilis, pH 8.2, read-out: Minimum Inhibitory Concentration, Bs.
Where [15] appears, read: Staphylococcus aureus, pH 8.2, read-out: Minimum Inhibitory Concentration, Sa.
Setting [16] is: Bacillus subtilis, pH 6.8; read-out: Minimum Inhibitory Concentration, Bs.
Where [17] appears, read: Staphylococcus aureus, pH 6.8; read-out: Minimum Inhibitory Concentration, Sa.

Regarding `N#CC#CSC1CCCC1` [C, 3-cyclopentylthio-2-propynenitrile], the MIC in the experiment with Bacillus subtilis (Bs) (setting [6]) was 100 µg/mL (≈ 661 µM); in the experiment on Bacillus subtilis (Bs) (setting [7]) it was 250 µg/mL (≈ 1650 µM); in the experiment with Trichoderma viride (Tv) (malt yeast agar), 2.5 µg/mL (≈ 16.5 µM); in [1] (setting [8]), < 10 µg/mL; in [1] (setting [9]) it was < 10 µg/mL; in [2] (setting [10]) it was 250 µg/mL (≈ 1650 µM). Further, the MIC in experiment [2] (setting [11]) was 250 µg/mL (≈ 1650 µM); in the experiment on Proteus vulgaris (Pv) (setting [12]), < 10 µg/mL; in the experiment with Proteus vulgaris (Pv) (setting [13]) it was < 10 µg/mL; in the experiment on Fusarium oxysporum (Fo) (malt yeast agar), < 1 µg/mL; in experiment [3] (malt yeast agar), 2.5 µg/mL (≈ 16.5 µM). The MEC in experiment [4] is 250 ppm; in experiment [5] it was 100 ppm.

Consider `CSC=C(Cl)C#N` [Compound G, 2-chloro-3-(methylthio)-2-propenenitrile], for which the MIC turned out to be 75 µg/mL (≈ 561 µM) in the experiment on Bacillus subtilis (Bs) (setting [6]); 10 µg/mL (≈ 74.8 µM) in the experiment with Bacillus subtilis (Bs) (setting [14]); 100 µg/mL (≈ 748 µM) in the experiment with Trichoderma viride (Tv); 50 µg/mL (≈ 374 µM) in [1] (setting [8]); 5 µg/mL (≈ 37.4 µM) in experiment [1] (setting [15]); 50 µg/mL (≈ 374 µM) in experiment [2] (Pseudomonas aeruginosa, pH 6.8, read-out: Minimum Inhibitory Concentration, PRD). Moreover, the MIC in experiment [2] (Pseudomonas aeruginosa, pH 8.2, read-out: Minimum Inhibitory Concentration, PRD) turned out to be 10 µg/mL (≈ 74.8 µM); in the experiment on Proteus vulgaris (Pv) (setting [12]), 50 µg/mL (≈ 374 µM); in the experiment on Proteus vulgaris (Pv) (setting [13]), 5 µg/mL (≈ 37.4 µM); with Fusarium oxysporum (Fo), 50 µg/mL (≈ 374 µM); in [3] it was 50 µg/mL (≈ 374 µM).

On to `N#CC#CSc1ccc(Cl)cc1` [D, 3-(4-chlorophenylthio)-2-propynenitrile], for which the MIC with Bacillus subtilis (Bs) (setting [16]) is < 10 µg/mL; in the experiment on Bacillus subtilis (Bs) (setting [7]), 50 µg/mL (≈ 258 µM); with Trichoderma viride (Tv) (malt yeast agar) it was 2.5 µg/mL (≈ 12.9 µM); in experiment [1] (setting [17]), < 10 µg/mL; in [1] (setting [9]), 25 µg/mL (≈ 129 µM); in [2] (setting [10]) it was 25 µg/mL (≈ 129 µM). For the same compound, the MIC is 100 µg/mL (≈ 516 µM) in experiment [2] (setting [11]); < 10 µg/mL in the experiment with Proteus vulgaris (Pv) (setting [12]); 50 µg/mL (≈ 258 µM) in the experiment on Proteus vulgaris (Pv) (setting [13]); < 1 µg/mL with Fusarium oxysporum (Fo) (malt yeast agar); < 1 µg/mL in [3] (malt yeast agar). The figures for the MEC in experiment [4] and in experiment [5] were 250 ppm and 100 ppm, respectively.

Take `CSC#CC#N` [Compound A, 3-methylthio-2-propynenitrile]: the MIC in the experiment with Bacillus subtilis (Bs) (setting [16]) is 2.5 µg/mL (≈ 25.7 µM); in the experiment on Bacillus subtilis (Bs) (setting [7]), 5 µg/mL (≈ 51.5 µM); with Trichoderma viride (Tv) (malt yeast agar), 0.25 µg/mL (≈ 2.57 µM); in [1] (setting [17]), 2.5 µg/mL (≈ 25.7 µM); in experiment [1] (setting [9]) it was 5 µg/mL (≈ 51.5 µM); in [2] (setting [10]) it was 2.5 µg/mL (≈ 25.7 µM). Further, the MIC in experiment [2] (setting [11]) is 5 µg/mL (≈ 51.5 µM); in the experiment on Proteus vulgaris (Pv) (setting [12]), < 1 µg/mL; in the experiment with Proteus vulgaris (Pv) (setting [13]) it was 2.5 µg/mL (≈ 25.7 µM); in the experiment on Fusarium oxysporum (Fo) (malt yeast agar) it was 0.5 µg/mL (≈ 5.15 µM); in experiment [3] (malt yeast agar), 2.5 µg/mL (≈ 25.7 µM). Besides, the “Minimum Inhibitory Concentration, Bs” value in the experiment on Bacillus subtilis (Bs) (pH 8.2) is 5 ppm. In addition, the “Minimum Inhibitory Concentration, Sa” value in experiment [1] (pH 8.2) was determined as 5 ppm. Also, in experiment [2] (pH 8.2), the “Minimum Inhibitory Concentration, PRD” value was determined as 5 ppm. For the same compound, the MEC in [4] and in [5] was 10 ppm throughout.

For the compound `CCSC#CC#N` [B, 3-ethylthio-2-propynenitrile], the MIC stood at 25 µg/mL (≈ 225 µM) with Bacillus subtilis (Bs) (setting [16]); 25 µg/mL (≈ 225 µM) in the experiment with Bacillus subtilis (Bs) (setting [14]); 10 µg/mL (≈ 90 µM) in the experiment with Trichoderma viride (Tv); 5 µg/mL (≈ 45 µM) in experiment [1] (setting [17]); 10 µg/mL (≈ 90 µM) in experiment [1] (setting [15]); 25 µg/mL (≈ 225 µM) in experiment [2] (setting [10]). Also, the MIC is 25 µg/mL (≈ 225 µM) in experiment [2] (setting [11]); < 1 µg/mL in the experiment with Proteus vulgaris (Pv) (setting [12]); 5 µg/mL (≈ 45 µM) in the experiment with Proteus vulgaris (Pv) (setting [13]); < 1 µg/mL with Fusarium oxysporum (Fo) (malt yeast agar); < 1 µg/mL in experiment [3] (malt yeast agar). The MEC in [4] and in experiment [5] was 25 ppm each time.
